Test results published in patent publication US12274684B2, “Treatment of vasculopathy with prostacyclin and mesenchymal stem cells” (United Therapeutics Corporation, priority 2013, dated 2025).
Values joined by “and” are separate entries in the source; they are usually repeats but may differ in a detail not shown here. Equal values may be shown once.

Test system: human bone marrow MSC
Experiment: Microarray gene expression analysis of MSC (Illumina Human HT12 Expression BeadChip)
Format: cell-based
Settings: Tre(+) 250 μg/mL, 24 h
Procedure: Human bone marrow MSC were expanded and seeded into six (6) T225 flasks using standard growth medium (Table 1). At 95-99% confluency, cells were thoroughly washed with PBS. Three (3) flasks were replenished with basal media containing 250 μg/mL treprostinil, (+)Tre, and the remaining three (3) flasks were replenished with unsupplemented basal media, (−)Tre. After 24 hours of culture, representative images were captured from (+) Tre and (−) Tre cultures. Conditioned media was collected from each replicate, divided into two samples of appropriate volumes, and analyzed separately for: 1) secreted proteins (Myriad RBM InflammationMAP® 1.0) and 2) exosome RNA content. Cells were lysed directly from culture flasks, processed for total RNA isolation, and analyzed for gene expression by microarray (Illumina Human HT12 Expression BeadChip). Microarray gene expression analysis was also performed on MSC from cultures without (−) or with (+) 250 ug/mL treprostinil. Three (3) biological replicates from each condition were analyzed. Of the 77,612 sequences identified among all replicates, only 24,273 were detected above the arbitrary background of 50 counts. 2,984 RNA sequences were unique to Tre(−) cultures, while 1,781 RNA sequences were unique to Tre(+) cultures (panel A). Genes detected in both conditions were further analyzed for differential expression (panel). […] Genes that are expressed only in Tre(−) cultures (that is to say, completely turned off in the Tre(+) cultures) are shown in Table 5.

CCCCC[C@H](O)CC[C@@H]1[C@H]2Cc3cccc(OCC(=O)O)c3C[C@H]2C[C@H]1O [treprostinil]
ASPM (NM_018136) expression, Rep 1-3: 20 counts and 27 counts and 30 counts | ATF3 (NM_001030287) expression, Rep 1-3: 1001 counts and 1579 counts and 1041 counts | ATP6V0D2 (NM_152565) expression, Rep 1-3: 547 counts and 893 counts and 499 counts | BMP6 (NM_001718) expression, Rep 1-3: 1210 counts and 1581 counts and 1181 counts | C11orf96 (NM_001145033) expression, Rep 1-3: 2050 counts and 2381 counts and 1885 counts | C13orf33 (NM_032849) expression, Rep 1-3: 17304 counts and 24329 counts and 16255 counts | CALD1 (NM_033140) expression, Rep 1-3: 0 counts | CD55 (NM_000574) expression, Rep 1-3: 7472 counts and 9108 counts and 6555 counts | CD55 (NM_001114752) expression, Rep 1-3: 2497 counts and 3119 counts and 2372 counts | COL6A3 (NM_004369) expression, Rep 1-3: 5033 counts and 4570 counts and 4303 counts | CPA4 (NM_016352) expression, Rep 1-3: 51 counts and 62 counts and 45 counts | CXCL12 (NM_199168) expression, Rep 1-3: 853 counts and 627 counts and 534 counts | DDAH1 (NM_001134445) expression, Rep 1-3: 136 counts and 155 counts and 107 counts | DKFZp547J0510 (CDNA FLJ42650 fis, clone BRACE3027478) expression, Rep 1-3: 183 counts and 135 counts and 125 counts | DUSP1 (NM_004417) expression, Rep 1-3: 825 counts and 1489 counts and 963 counts | FAM84A (NM_145175) expression, Rep 1-3: 63 counts and 40 counts and 32 counts | GDF5 (NM_000557) expression, Rep 1-3: 83 counts and 64 counts and 65 counts | GDF15 (NM_004864) expression, Rep 1-3: 11450 counts and 18978 counts and 10088 counts | GDNF (NM_000514) expression, Rep 1-3: 689 counts and 845 counts and 824 counts | GPRC5A (NM_003979) expression, Rep 1-3: 4151 counts and 5981 counts and 3920 counts | HAS1 (NM_001523) expression, Rep 1-3, second entry: 1355 counts and 730 counts and 789 counts | HSD11B1 (NM_005525) expression, Rep 1-3: 822 counts and 966 counts and 758 counts | IDH1 (NM_005896) expression, Rep 1-3: 1920 counts and 2406 counts and 1792 counts | IER3 (NM_003897) expression, Rep 1-3: 2769 counts and 3595 counts and 2558 counts | IGFBP1 (NM_000596) expression, Rep 1-3: 5468 counts and 8123 counts and 5321 counts | IL6 (NM_000600) expression, Rep 1-3: 6490 counts and 8445 counts and 5640 counts | IL11 (NM_000641) expression, Rep 1-3: 851 counts and 1237 counts and 700 counts | ISLR (NM_005545) expression, Rep 1-3: 612 counts and 543 counts and 490 counts | KTN1 (NM_001079522) expression, Rep 1-3: 531 counts and 612 counts and 596 counts | KYNU (NM_003937) expression, Rep 1-3: 867 counts and 922 counts and 797 counts | LIPG (NM_006033) expression, Rep 1-3: 1552 counts and 1946 counts and 1607 counts | MEST (NM_177525) expression, Rep 1-3: 367 counts and 268 counts and 258 counts | METTL7A (NM_014033) expression, Rep 1-3: 146 counts and 95 counts and 85 counts | MYLK (NM_053025) expression, Rep 1-3: 0 counts | NAP1L3 (NM_004538) expression, Rep 1-3: 68 counts and 35 counts and 42 counts | NGFR (NM_002507) expression, Rep 1-3: 1217 counts and 1818 counts and 1074 counts | NR4A2 (NM_006186) expression, Rep 1-3: 635 counts and 810 counts and 592 counts | OLFML1 (NM_198474) expression, Rep 1-3 (Table 4): 177 counts and 128 counts and 114 counts | PALLD (NM_001166110) expression, Rep 1-3: 1158 counts and 885 counts and 1055 counts | PAQR5 (NM_017705) expression, Rep 1-3: 703 counts and 745 counts and 664 counts | PDE4B (NM_001037339) expression, Rep 1-3: 1160 counts and 1371 counts and 1056 counts | PDE4D (NM_001197221) expression, Rep 1-3: 1130 counts and 1170 counts and 1071 counts | PDE4D (NM_001197222) expression, Rep 1-3: 1417 counts and 2044 counts and 1570 counts | PDE5A (NM_033430) expression, Rep 1-3: 174 counts and 286 counts and 206 counts | PDK4 (NM_002612) expression, Rep 1-3: 1296 counts and 1726 counts and 1173 counts | PITPNC1 (NM_181671) expression, Rep 1-3: 702 counts and 1007 counts and 764 counts | PLIN2 (NM_001122) expression, Rep 1-3: 82301 counts and 124225 counts and 72254 counts | PLOD2 (NM_000935) expression, Rep 1-3: 1169 counts and 1679 counts and 925 counts | PRELP (NM_002725) expression, Rep 1-3: 159 counts and 104 counts and 80 counts | PRKAG2 (NM_024429) expression, Rep 1-3: 7233 counts and 8152 counts and 6080 counts | PTP4A1 (NM_003463) expression, Rep 1-3: 849 counts and 696 counts and 510 counts | RCAN1 (NM_203418) expression, Rep 1-3: 7766 counts and 11997 counts and 6962 counts | RCAN2 (NM_001251974) expression, Rep 1-3: 129 counts and 109 counts and 76 counts | RND3 (NM_005168) expression, Rep 1-3: 48372 counts and 65016 counts and 41881 counts | S100A4 (NM_002961) expression, Rep 1-3: 149 counts and 114 counts and 113 counts | SAT1 (transcript variant 2, non-coding RNA) expression, Rep 1-3: 1141 counts and 1529 counts and 954 counts | SCG2 (NM_003469) expression, Rep 1-3: 1014 counts and 1187 counts and 1069 counts | SEC31A (NM_001077207) expression, Rep 1-3: 737 counts and 887 counts and 573 counts | SIK1 (NM_173354) expression, Rep 1-3: 1144 counts and 1320 counts and 1086 counts | SLC2A12 (NM_145176) expression, Rep 1-3: 110 counts and 114 counts and 92 counts | SLC3A2 (NM_001013251) expression, Rep 1-3: 31831 counts and 39703 counts and 29042 counts | SLC6A15 (NM_182767) expression, Rep 1-3: 1201 counts and 1568 counts and 1062 counts
